Measurements as given in ChEMBL document CHEMBL5108025, “New thiazole-based derivatives as EGFR/HER2 and DHFR inhibitors: Synthesis, molecular modeling simulations and anticancer activity” (Eur J Med Chem, 2022).

Assays:
HCT-116 = assay: cells; settings: Homo sapiens, HCT-116, 72 h
Description: Antiproliferative activity against human HCT-116 cells after 72 hrs by MTT assay

HeLa = assay: Antiproliferative activity against human HeLa cells after 72 hrs by MTT assay; assay type: functional, cell-based
HepG2 = assay: cells; settings: Homo sapiens, HepG2, 72 h
PC-3 = assay: Antiproliferative activity against human PC-3 cells after 72 hrs by MTT assay; assay type: functional, cell-based; settings: PC-3, 72 h
MCF7 = assay: cells; settings: Homo sapiens, MCF7, 72 h
[1] = target: Epidermal growth factor receptor (Homo sapiens, UniProt P00533)
Epidermal growth factor receptor, sequence (P00533 whole entry): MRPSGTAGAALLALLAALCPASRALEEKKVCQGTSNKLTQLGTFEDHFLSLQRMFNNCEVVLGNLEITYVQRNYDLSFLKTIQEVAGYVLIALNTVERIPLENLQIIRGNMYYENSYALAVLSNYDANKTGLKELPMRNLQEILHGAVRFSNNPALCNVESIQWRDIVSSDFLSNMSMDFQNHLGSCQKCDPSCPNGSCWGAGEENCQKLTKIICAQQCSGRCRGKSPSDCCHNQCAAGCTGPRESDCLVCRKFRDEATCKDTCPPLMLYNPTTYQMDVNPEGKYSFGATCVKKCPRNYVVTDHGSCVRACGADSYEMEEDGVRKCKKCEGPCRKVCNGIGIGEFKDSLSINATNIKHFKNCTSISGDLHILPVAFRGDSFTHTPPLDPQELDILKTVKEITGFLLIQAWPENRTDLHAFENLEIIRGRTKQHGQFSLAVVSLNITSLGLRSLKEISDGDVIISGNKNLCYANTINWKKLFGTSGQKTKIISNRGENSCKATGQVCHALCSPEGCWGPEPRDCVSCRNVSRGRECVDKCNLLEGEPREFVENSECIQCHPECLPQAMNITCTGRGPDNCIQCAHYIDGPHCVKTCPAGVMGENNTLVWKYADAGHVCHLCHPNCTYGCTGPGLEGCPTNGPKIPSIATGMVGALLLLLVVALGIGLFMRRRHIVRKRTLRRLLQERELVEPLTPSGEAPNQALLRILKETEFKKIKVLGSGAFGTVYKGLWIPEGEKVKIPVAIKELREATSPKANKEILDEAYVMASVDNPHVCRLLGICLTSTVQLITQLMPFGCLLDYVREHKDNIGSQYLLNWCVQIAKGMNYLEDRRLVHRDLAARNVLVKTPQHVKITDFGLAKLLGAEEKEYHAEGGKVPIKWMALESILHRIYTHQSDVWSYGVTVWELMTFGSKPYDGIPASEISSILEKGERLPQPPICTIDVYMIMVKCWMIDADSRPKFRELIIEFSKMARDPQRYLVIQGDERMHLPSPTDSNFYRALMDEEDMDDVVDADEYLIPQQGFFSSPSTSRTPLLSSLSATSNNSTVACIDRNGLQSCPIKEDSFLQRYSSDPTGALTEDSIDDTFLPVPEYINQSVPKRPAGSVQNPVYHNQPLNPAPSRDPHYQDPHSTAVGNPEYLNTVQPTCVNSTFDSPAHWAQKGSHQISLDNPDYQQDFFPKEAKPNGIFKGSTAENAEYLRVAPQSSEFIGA
Description: Inhibition of recombinant human EGFR incubated for 40 to 45 mins and measured after 15 mins by Kinase-Glo Max assay

Dihydrofolate reductase = target: T1, Dihydrofolate reductase (Homo sapiens, UniProt P00374); assay: Inhibition of recombinant human DHFR expressed in Escherichia coli incubated for 15 mins and measured by ELISA
T1 sequence (P00374 whole entry): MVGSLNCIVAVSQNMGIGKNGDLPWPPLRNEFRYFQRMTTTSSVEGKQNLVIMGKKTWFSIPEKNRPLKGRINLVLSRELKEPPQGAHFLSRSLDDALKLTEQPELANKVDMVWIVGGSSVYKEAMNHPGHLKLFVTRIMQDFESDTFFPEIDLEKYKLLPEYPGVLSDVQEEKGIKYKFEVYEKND

WI-38 = assay: Antiproliferative activity against human WI-38 cells after 72 hrs by MTT assay; assay type: functional, cell-based; settings: WI-38, 72 h
[2] = target: Receptor tyrosine-protein kinase erbB-2 (Homo sapiens, UniProt P04626); assay: Inhibition of recombinant human HER2 incubated for 40 to 45 mins and measured after 15 mins by Kinase-Glo Max assay
Receptor tyrosine-protein kinase erbB-2, sequence (P04626 whole entry): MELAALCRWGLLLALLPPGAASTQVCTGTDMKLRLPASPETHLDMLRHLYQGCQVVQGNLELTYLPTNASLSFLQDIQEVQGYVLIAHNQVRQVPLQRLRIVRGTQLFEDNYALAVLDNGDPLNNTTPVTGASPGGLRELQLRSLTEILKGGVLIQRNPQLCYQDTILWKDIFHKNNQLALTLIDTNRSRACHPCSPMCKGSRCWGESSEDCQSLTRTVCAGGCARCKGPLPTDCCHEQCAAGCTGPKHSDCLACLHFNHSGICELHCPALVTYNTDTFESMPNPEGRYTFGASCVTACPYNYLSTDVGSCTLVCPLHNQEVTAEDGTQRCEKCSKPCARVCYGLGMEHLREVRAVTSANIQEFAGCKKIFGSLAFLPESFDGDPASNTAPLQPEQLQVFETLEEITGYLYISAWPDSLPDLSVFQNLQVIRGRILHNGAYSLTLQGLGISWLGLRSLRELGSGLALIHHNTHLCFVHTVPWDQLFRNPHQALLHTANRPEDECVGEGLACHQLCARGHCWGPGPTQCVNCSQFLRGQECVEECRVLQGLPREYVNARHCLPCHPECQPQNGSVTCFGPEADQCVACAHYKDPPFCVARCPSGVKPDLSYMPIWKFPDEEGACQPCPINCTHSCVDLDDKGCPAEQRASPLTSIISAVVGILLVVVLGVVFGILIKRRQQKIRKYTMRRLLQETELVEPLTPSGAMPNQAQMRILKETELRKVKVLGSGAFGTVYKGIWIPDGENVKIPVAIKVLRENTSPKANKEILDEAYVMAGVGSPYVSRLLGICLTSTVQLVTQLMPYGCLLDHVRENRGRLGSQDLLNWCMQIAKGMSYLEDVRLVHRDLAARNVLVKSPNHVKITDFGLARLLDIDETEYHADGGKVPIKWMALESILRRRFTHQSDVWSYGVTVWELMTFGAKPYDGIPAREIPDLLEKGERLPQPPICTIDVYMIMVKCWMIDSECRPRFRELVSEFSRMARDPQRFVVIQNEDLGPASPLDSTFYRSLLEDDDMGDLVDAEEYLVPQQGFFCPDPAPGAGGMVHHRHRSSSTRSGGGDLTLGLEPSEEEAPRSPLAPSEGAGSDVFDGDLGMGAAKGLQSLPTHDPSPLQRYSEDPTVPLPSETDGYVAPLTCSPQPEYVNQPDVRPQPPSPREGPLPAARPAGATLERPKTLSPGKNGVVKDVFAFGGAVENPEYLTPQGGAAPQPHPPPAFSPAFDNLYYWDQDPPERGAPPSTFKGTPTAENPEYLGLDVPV

| Structure (SMILES) | IC50 (HCT-116) [µM] | IC50 (HeLa) [µM] | IC50 (HepG2) [µM] | IC50 (PC-3) [µM] | IC50 (MCF7) [µM] | IC50 [1] [µM] | IC50 (Dihydrofolate reductase) [µM] | IC50 (WI-38) [µM] | IC50 [2] [µM] |
| --- | --- | --- | --- | --- | --- | --- | --- | --- | --- |
| CCCC(=O)NNC(=O)c1csc2ncc(-c3ccc(OC)cc3)n12 | 59.1 | 43.3 | 38 | 66.4 | 32.8 |  |  |  |  |
| CCOC(=O)c1csc2nc(CN3CCN(C)CC3)c(-c3ccc(Br)cc3)n12 | 93.6 | 55.4 | 82.7 | 85 | 68.5 |  |  |  |  |
| CNC(=O)c1cc(Oc2ccc(NC(=O)Nc3ccc(Cl)c(C(F)(F)F)c3)cc2)ccn1 [SORAFENIB] |  |  |  | 11.5 |  |  |  |  |  |
| COc1ccc(-c2c(CN3CCOCC3)nc3scc(C(=O)NNC(C)=O)n23)cc1 | 29.9 | 18.9 | 23.7 | 34.8 | 11.3 |  |  |  |  |
| CC(=O)NNC(=O)c1csc2nc(CN3CCOCC3)c(-c3ccc(Br)cc3)n12 | 22 | 13.6 | 14.1 | 29.3 | 19.1 |  |  |  |  |
| Cc1ccc(-c2c(CN3CCOCC3)nc3scc(C(=O)NN)n23)cc1 | 13.2 | 6.9 | 9.67 | 11.2 | 8.46 | 0.246 | 0.123 | 89.6 | 0.357 |
| CCOC(=O)c1csc2nc(CN3CCOCC3)c(-c3ccc(Br)cc3)n12 | 28.5 | 20.8 | 32.5 | 35.2 | 24.6 |  |  |  |  |
| CN(Cc1cnc2nc(N)nc(N)c2n1)c1ccc(C(=O)N[C@@H](CCC(=O)O)C(=O)O)cc1 [METHOTREXATE] | 9.25 | 13.7 | 21.9 | 28.8 | 25.3 |  |  |  |  |
| CC(=O)NNC(=O)c1csc2ncc(-c3ccc(C)cc3)n12 | 71.8 | 74.2 | 63.6 | 92.7 | 57.3 |  |  |  |  |
| CCC(=O)NNC(=O)c1csc2ncc(-c3ccc(OC)cc3)n12 | 64.3 | 56.2 | 45.8 | 79.8 | 53.2 |  |  |  |  |
| COc1ccc(-c2c(CN3CCCCC3)nc3scc(C(=O)O)n23)cc1 | 84.6 | 47.4 | 75 | 73.1 | 62.9 |  |  |  |  |
| CCOC(=O)c1csc2nc(CN3CCN(Cc4ccccc4)CC3)c(-c3ccc(C)cc3)n12 | 47.8 | 38.8 | 88.2 | > 100 | 29.1 |  |  |  |  |
| COc1ccc(NC(=S)Nc2nc(C(=O)NCc3ccccc3)cs2)cc1 | 18.2 | 22.9 | 28.1 | 39.3 | 24.6 |  |  |  |  |
| CCOC(=O)c1csc2nc(CN3CCN(C)CC3)c(-c3ccc(C)cc3)n12 | 61 | 43.9 | 53.6 | 65 | 58.3 |  |  |  |  |
| CCC(=O)NNC(=O)c1csc2nc(CN3CCOCC3)c(-c3ccc(Br)cc3)n12 | 34.1 | 27 | 31.2 | 42.7 | 25.4 |  |  |  |  |
| O=C(O)c1csc2nc(CN3CCCCC3)c(-c3ccc(Br)cc3)n12 | > 100 | 76.6 | > 100 | > 100 | 87.5 |  |  |  |  |
| NNC(=O)c1csc2nc(CN3CCOCC3)c(-c3ccc(Br)cc3)n12 | 17.9 | 3.65 | 5.81 | 21.9 | 6.18 | 0.419 | 3.28 | 49.8 | 0.121 |
| CCCC(=O)NNC(=O)c1csc2nc(CN3CCOCC3)c(-c3ccc(OC)cc3)n12 | 68.7 | 53.7 | 81.2 | 88.5 | 72.4 |  |  |  |  |
| CC(=O)NNC(=O)c1csc2nc(CN3CCOCC3)c(-c3ccc(C)cc3)n12 | 54.6 | 35.3 | 43 | 61.3 | 50.8 |  |  |  |  |
| CCOC(=O)c1csc2nc(CN3CCOCC3)c(-c3ccc(C)cc3)n12 | 32.6 | 24.8 | 39 | 47.1 | 43.6 |  |  |  |  |

| Structure (SMILES) | IC50 (HCT-116) [µM] | IC50 (HeLa) [µM] | IC50 (HepG2) [µM] | IC50 (PC-3) [µM] | IC50 (MCF7) [µM] | IC50 [1] [µM] | IC50 (Dihydrofolate reductase) [µM] | IC50 (WI-38) [µM] | IC50 [2] [µM] |
| --- | --- | --- | --- | --- | --- | --- | --- | --- | --- |
| CCOC(=O)c1csc2nc(CN3CCN(Cc4ccccc4)CC3)c(-c3ccc(OC)cc3)n12 | 19.6 | 9.94 | 26.4 | 29.4 | 17.1 |  |  |  |  |
| Cc1ccc(-c2c(CN3CCCCC3)nc3scc(C(=O)O)n23)cc1 | 13.8 | 7.63 | 10.8 | 16.6 | 8.29 | 0.18 | 0.907 | > 100 | 0.146 |
| CCC(=O)NNC(=O)c1csc2ncc(-c3ccc(C)cc3)n12 | 9.23 | 13 | 7.34 | 18.5 | 5.19 | 0.45 | 5.67 | 67.2 | 0.244 |
| COc1ccc(-c2cnc3scc(C(=O)NNC(C)=O)n23)cc1 | 17 | 17.9 | 11.8 | 28.3 | 8.36 |  |  |  |  |
| CCCC(=O)NNC(=O)c1csc2nc(CN3CCOCC3)c(-c3ccc(Br)cc3)n12 | 46.8 | 29.2 | 38.4 | 52.9 | 35.9 |  |  |  |  |
| CCCC(=O)NNC(=O)c1csc2nc(CN3CCOCC3)c(-c3ccc(C)cc3)n12 | 77.5 | 67.9 | 92.4 | > 100 | 89.3 |  |  |  |  |
| O=C(NCCc1ccccc1)c1csc(NC(=S)Nc2ccc(Cl)cc2)n1 | 29.7 | 30.4 | 11.8 | 33.8 | 17.2 |  |  |  |  |
| CCC(=O)NNC(=O)c1csc2nc(CN3CCOCC3)c(-c3ccc(OC)cc3)n12 | 59.3 | 44.2 | 55.9 | 73.9 | 64.1 |  |  |  |  |
| CCC(=O)NNC(=O)c1csc2nc(CN3CCOCC3)c(-c3ccc(C)cc3)n12 | 64.5 | 48.4 | 69.2 | 79.1 | 58.2 |  |  |  |  |
| CCOC(=O)c1csc2nc(CN3CCN(C)CC3)c(-c3ccc(OC)cc3)n12 | 44.6 | 35.1 | 68.4 | 69.4 | 32.8 |  |  |  |  |
| CCC(=O)NNC(=O)c1csc2ncc(-c3ccc(Br)cc3)n12 | 25.3 | 23.1 | 19.2 | 43.7 | 15 |  |  |  |  |
| O=C(NCc1ccccc1)c1csc(NC(=S)Nc2ccc(Cl)cc2)n1 | 62.1 | 76 | 40.3 | 51.3 | 56.5 |  |  |  |  |
| CCOC(=O)c1csc2nc(CN3CCN(Cc4ccccc4)CC3)c(-c3ccc(Br)cc3)n12 | 37.2 | 29.5 | 47.3 | 56.4 | 51.4 |  |  |  |  |
| CCCC(=O)NNC(=O)c1csc2ncc(-c3ccc(Br)cc3)n12 | 50.3 | 31.9 | 33.6 | 58.5 | 27.5 |  |  |  |  |
| CCOC(=O)c1csc2nc(CN3CCOCC3)c(-c3ccc(OC)cc3)n12 | 25.8 | 16.4 | 19.8 | 22.6 | 13.9 |  |  |  |  |
| O=C(NCCCc1ccccc1)c1csc(NC(=S)Nc2ccc(Cl)cc2)n1 | 36.6 | 32.2 | 53.1 | 42.4 | 45.1 |  |  |  |  |
| COc1ccc(NC(=S)Nc2nc(C(=O)NCCCc3ccccc3)cs2)cc1 | 44.8 | 57.5 | 71.3 | 74.5 | 63.8 |  |  |  |  |
| COc1ccc(NC(=S)Nc2nc(C(=O)NCCc3ccccc3)cs2)cc1 | 8.13 | 14.8 | 19.5 | 25.1 | 10.6 |  |  |  |  |
| CCCC(=O)NNC(=O)c1csc2ncc(-c3ccc(C)cc3)n12 | 34.5 | 45.6 | 26.8 | 53.5 | 41.7 |  |  |  |  |
